# Measurements published in patent publication EP0227818B1, “ANTIGLAUCOMA COMPOSITIONS” (SCHERING CORPORATION, priority 1985, dated 1987).
# Columns and labels:
# [1] = test system: intraocular pressure (IOP); assay: Intraocular pressure (IOP) lowering in conscious normotensive rabbits after topical dosing, applanation tonometer; assay type: in vivo, Male New Zealand white rabbits; conditions: 0.5% Timolol alone (plus 50 µl vehicle 1), 50 µl topical to left eye, mean ± SEM; statistically significant vs placebo; concentration giving maximum IOP reduction with timolol alone
# Protocol: Food and water were allowed ad libitum. The rabbits were maintained on a light cycle of 12 h darkness (7 PM to 7 AM) followed by 12 h of light. Animals were conditioned to their handlers and the laboratory setting and IOP measurements for at least one 4 h period before being used to study drug effects.
# Rabbits were restrained in a cloth sack approximately 2 min prior to IOP determinations. The left lower eyelid was retracted forming a pouch and 1 drop of the local anesthetic proparacaine (0.05% w/v) was irrigated over the cornea. The eyelid was then held closed over the eye about 1 min. IOP was usually monitored 1 h before dosing, at zero time (immediately prior to dosing), and hourly for the next 4 h. Only rabbits with IOP's of 18-23 mmHg and showing no sign of ocular irritation were used in drug studies.
# IOP, in mmHg, was determined in triplicate with a McKag-Marg applanation tonometer and the average reading was recorded. The tonometer had previously been calibrated against direct manometric determination of IOP in living eyes of barbiturate-anesthetized rabbits. Internal calibration signals of the McKay-Marg unit were checked after every eight readings or less. […]
# The data (mean I SEM) were analyzed using analysis of variance and Dunnett's or Duncan's comparisons and are expressed as peak changes in IOP. […]
# [2] = Gross examination of cornea, iris, conjunctivae and pupil diameter for ocular irritation in the IOP study; assay type: in vivo, Male New Zealand white rabbits; conditions: rabbits, topical ocular dosing
# Description: Prior to drug administration and at each IOP determination, the cornea, iris, and conjunctivae were grossly examined for signs of irritation. Pupil diameter was also examined but detailed measurements were not made.
smiles,measurement,setting,value
"CC(C)(C)NC[C@H](O)COc1nsnc1N1CCOCC1 [Timolol, 1-[(1,1-dimethylethyl)amino]-3-[(4-morpholinyl-1,2,5-thiadiazol-3-yl)-oxy]-2-propanol]",Peak Change in IOP,[1],-3.0±0.4^(1) mmHg
same,signs of acute ocular irritation,[2]; all concentrations tested,None
same,Pupillary diameters,"[2]; examined, detailed measurements not made",not affected
